According to ChEMBL document CHEMBL1145843 (J Med Chem, 2003):
Active and inactive are the calls of the source.

Columns and labels:
[1] = test system: Plasmodium falciparum; test: Growth inhibition against Plasmodium falciparum NF54; Not active <= 3000nM; assay type: functional, organism-based
[2] = Hematin binding affinity of compound was determined as a measure of inhibiting hematin polymerization
[3] = Inhibitory concentration of compound for inhibiting hematin polymerization; assay type: functional
[4] = test system: Plasmodium falciparum; test: Growth inhibition against Plasmodium falciparum K1; Not active <= 3000nM; assay type: functional, organism-based

Row | Ka [2] | IC50 [3] | SMILES | NI [1] | NI [4]
1 | 84000 M⁻¹ | 1500 µM | CCN(CC)CCCC(C)Cc1ccnc2cc(Cl)ccc12 (configuration not stated) | inactive | inactive
2 | – | > 2500 µM | CCN(CC)CCCC(C)Nc1cccc2cc(Cl)ccc12 (configuration not stated) | inactive | inactive
